According to ChEMBL document CHEMBL3046703, “Study of mangiferin-receptor affinity by cell membrane chromatography using rat pancreas” (Med Chem Res, 2012):
The source made the active and inactive calls. The rule behind the calls is not given here.

Tests used:
Type in all cases: cell membranes
[1] = Binding affinity to mangiferin receptor in rat islet cell membrane stationary phase by chromatographic analysis
[2] = species: Rattus norvegicus; assay: Binding affinity to mangiferin receptor in rat islet cell membrane stationary phase assessed as total active binding sites per islet bed by chromatographic analysis
[3] = species: Rattus norvegicus; assay: Binding affinity to mangiferin receptor in rat islet cell membrane stationary phase assessed as ligand-membrane complex by infrared spectroscopic analysis

O=c1c2cc(O)c(O)cc2oc2cc(O)c([C@@H]3O[C@H](CO)[C@@H](O)[C@H](O)[C@H]3O)c(O)c12 [MANGIFERIN]
Kd [1]: 400 nM
Activity [2]: 22.7 µmol
Activity [3]: Active
